Measurements as given in patent US20250332081A1, “A Composition Against Osmotic Stress” (ELC Management LLC, priority 2022, published 2025).

Test system: Normal Human Epidermal Keratinocytes (NHEK)
Assay: Hyper-osmotic stress model in NHEKs: cell protection (alamarBlue viability) and combination index
Assay type: cell-based
Settings: 48 hrs, hyper-osmotic stress 450 mOsm
Method: 1.2 g betaine (RDS 51-6709) was dissolved in 100 ml water with magnetic stirring for complete dissolution (Stock concentration 1.2%). 0.5 g Roselle extract (Hibiscus Sabdariffa Extract, Lucas Meyer Cosmetics Company) was dissolved in 10 mL water to achieve 5% stock solution. Then the solutions were filtrated with 0.22 um filter to keep sterile.
Normal Human Epidermal Keratinocytes (NHEK, FC-0007) purchased from Lifeline Cell Technology were incubated at 37° C., 95% humidity and 5% CO2 in keratinocyte cell culture medium (DermaLife K Keratinocyte Medium Complete Kit, LL-0007, Lifeline cell technology) supplemented with growth factors and 1% Penicillin/Streptomycin (Thermo Fischer, Waltham, MA, USA). Cells were passaged upon reaching 80% confluency.
NHEKs were plated in 96-well plates at 4,000/well density. After 24 h of incubation, the cells would have reached ˜80% confluency. 4.38 mg/mL NaCL was added in the culture media to achieve 450 osmolarity, on top of a baseline ˜300 mOsm.
On day 1, NHEKs were seeded with culture medium (DermaLife K Keratinocyte Medium Complete Kit) in a 96-well plate at 3,000 cells/well. After 24 h adherence, a 2-active combination experiment was carried out in vitro. 21 data points were used for dose and effect, including 4 concentrations for betaine, 7 concentrations for roselle extract and their combination as below (Table 1). Cells were treated with the combination of these actives for 48 hrs (Separately diluted with cell culture medium, followed by mixing together to treat cells). Then cells were washed with Dulbecco's phosphate buffered saline (DPBS) twice, and then incubated in medium with 10% alamarBlue™ Cell Viability Reagent (Thermo Fisher, Waltham, MA, USA) for 120 minutes. The incubated plates were measured for fluorescence using a Perkin Elmer plate reader (VICTOR Nivo), at Ex 530 nm/Em 615 nm. The value are recorded as RFU value.
The protective effect can be determined by Cell viability ratio (%) and Cell protection rate (%) as follows.
According to the theory proposed by Chou and Talalay (TING-CHAO CHOU. Theoretical Basis, Experimental Design, and Computerized Simulation of Synergism and Antagonism in Drug Combination Studies. Pharmacol Rev 58:621-681, 2006), the level of synergism can be typically measured and quantified by the drug combination index (CI, a quantitative measure of drug combination effects) from experimental dose-response data. The concentration of each compound, the protection ratio of each compound or the combo of these two compounds data were input into computer for automated analysis using CalcuSyn software. […]
Experiments were conducted at four levels of betaine and seven levels of roselle extract. […] Synergy value is classified based on the calculated combination index.

In the case of `C[N+](C)(C)CC(=O)[O-]` [Betaine, trimethylglycine], the “Protective Ratio (%)” value (betaine 0.03% alone) is reported as 8.924%, the “Protective Ratio (%)” value (betaine 0.06% alone) is reported as 19.658% and the “Protective Ratio (%)” value (betaine 0.09% alone) is reported as 15.259%. For the same compound, the “Protective Ratio (%)” value (betaine 0.1% alone) was 17.451%.
